# Experimental data from patent US10722518B2, “Oxazine derivative for use in the treatment or prevention of cerebral amyloid angiopathy” (Novartis AG, priority 2016, dated 2020).
# Test system: amyloid-beta in CD31-positive vessels
# Test: Assessment of CAA in APP23 mice by CD31/NT12 double fluorescence immunohistochemistry and image analysis
# Type: in vivo, mouse
# Description: Amyloid plaques were stained using a rabbit anti-Aβ primary antibody (NT12) which recognizes the C-terminal part of the amyloid peptide (the antibody was raised as described in Schrader-Fischer G and Paganetti P A, 1996, and Schrader-Fischer G et al., 1997). The vascular endothelial cells were detected using a rat anti-CD31 antibody (reference DIA310) from Dianova GmbH (Hamburg, Germany). All stainings were performed using the fully automated instrument Ventana Discovery® Ultra (Roche Diagnostics Schweiz AG, Rotkreuz, Switzerland). All chemicals were provided by Roche Diagnostic.
# All study animals were used and brain tissue sections of 3 micrometers were freshly cut and collected on SuperFrost+ slides. The tissues sections were de-paraffinized and rehydrated under solvent-free conditions (EZprep solution) followed by antigen retrieval (demasking) performed by heat retrieval cycles for 32 min in a EDTA based buffer (CC1 solution). Subsequently, slides were blocked for 4 min using the DISCOVERY Inhibitor (reference 07017944001 (Roche)). The primary antibody diluted at 1/10′000 in antibody diluent was manually added on tissue sections and incubated for 1 h at room temperature. A short post-fixation (glutaraldehyde at 0.05%) was performed before applying the multimer UltraMap-anti Rabbit HRP ready to use antibody (reference 05269717001) for 16 min.
# Detection was performed using the DISCOVERY FITC® following the manufacturer's recommendations. Slides were then heat denaturated at 92° C. for 20 min before a manual application of the second primary antibody (rat anti-CD31 diluted at 1/1′000 in antibody diluent) and incubated for 1 h. Multimer UltraMap-anti-Rat HRP antibody (reference 05891884001) was used for 20 min to detect CD31 in combination with the DISCOVERY Rhodamine kit (reference 07259883001).
# The slides were washed and mounted using Prolong® Gold antifade reagent (reference P36931, ThermoFisher, Switzerland) and further scanned with the Hamamatsu slide scanner instrument (NanoZoomer 2.0 HT, scanning software NDP-Scan Vers. 2.5, Hamamatsu Photonics France, Swiss Office, Solothurn, Switzerland) at the 40× objective. The scanning settings were as follows: the exposure time with the DAPI filter was set at 28.5 ms as well as for the FITC filter and TRITC filter (detection of Rhodamine).
# For the quantitative plaque and vessel-associated amyloid-beta evaluation based on image analysis, a proprietary image analysis platform (ASTORIA, Automated Stored Image Analysis) was developed based on MS Visual Studio 2010 and many functions from Matrox MIL V9 libraries (Matrox Inc, Quebec, Canada).
# For the beta-amyloid plaque and vessel analysis, the following sequence of steps was performed: • Slides were scanned with Hamamatsu Nanozoomer at 40× magnification. […]
# [1] = 0.03 g/kg food, 6 months, all CD31+ vessels
# [2] = 0.03 g/kg food, 6 months, large CD31-positive vessels
# [3] = 0.03 g/kg vs vehicle, all CD31+ vessels
# [4] = 0.03 g/kg vs vehicle, large vessels
# [5] = 0.03 g/kg vs vehicle, small + medium vessels
smiles,measurement,setting,value
"C[C@@]1(c2nc(NC(=O)c3ncc(C(F)(F)F)cc3Cl)ccc2F)CO[C@@](C)(C(F)(F)F)C(N)=N1 [Compound 1, N-(6-((3R,6R)-5-amino-3,6-dimethyl-6-(trifluoromethyl)-3,6-dihydro-2H-1,4-oxazin-3-yl)-5-fluoropyridin-2-yl)-3-chloro-5-(trifluoromethyl)picolinamide]",% of large vessels with 0% Aβ,"0.03 g/kg food, 6 months",9.14 ± 9.14%
same,% of large vessels with 1-10% Aβ,"0.03 g/kg food, 6 months",17.4 ± 1.63%
same,% of large vessels with 10-25% Aβ,"0.03 g/kg food, 6 months",11.2 ± 1.68%
same,% of large vessels with 25-50% Aβ,"0.03 g/kg food, 6 months",17.5 ± 2.63%
same,% of large vessels with 50-75% Aβ,"0.03 g/kg food, 6 months",27.7 ± 1.97%
same,% of large vessels with >10% Aβ,"0.03 g/kg food, 6 months",73.5 ± 3.4%
same,% of large vessels with >75% Aβ,"0.03 g/kg food, 6 months",17.0 ± 2.92%
same,% of small + medium vessels with 0% Aβ,"0.03 g/kg food, 6 months",63.7 ± 2.83%
same,% of small + medium vessels with 1-10% Aβ,"0.03 g/kg food, 6 months",22.3 ± 2.65%
same,% of small + medium vessels with 10-25% Aβ,"0.03 g/kg food, 6 months",4.86 ± 0.48%
same,% of small + medium vessels with 25-50% Aβ,"0.03 g/kg food, 6 months",3.55 ± 0.35%
same,% of small + medium vessels with 50-75% Aβ,"0.03 g/kg food, 6 months",2.5 ± 0.31%
same,% of small + medium vessels with >10% Aβ,"0.03 g/kg food, 6 months",14.0 ± 1.01%
same,% of small + medium vessels with >75% Aβ,"0.03 g/kg food, 6 months",3.11 ± 0.44%
same,"CAA Frequency (number small + medium vessels with >10% Aβ normalized to sample area, *10^7)","0.03 g/kg food, 6 months",91 ± 5.9
same,Number of large CD31+ vessels (normalized to total CD31 positive vessel numbers in %),"0.03 g/kg food, 6 months",1.89 ± 0.17%
same,Number of small + medium CD31+ vessels (normalized to total CD31 positive small + medium vessel numbers in %),"0.03 g/kg food, 6 months",98.1 ± 0.17%
same,"Number small + medium vessels with >10% Aβ, mean ± SEM","0.03 g/kg food, 6 months",288 ± 21.9
same,"Total number CD31+ vessels (normalized to total sample area, *10^5), mean ± SEM","0.03 g/kg food, 6 months",6.52 ± 0.4
same,Total vessel-associated NT12 area (normalized to total small + medium CD31+ vessel area),"0.03 g/kg food, 6 months",0.286 ± 0.0313
same,% of vessels with 0% Aβ,[1],60.3 ± 3.49%
same,% of vessels with 1-10% Aβ,[1],23.2 ± 2.6%
same,% of vessels with 10-25% Aβ,[1],5.65 ± 0.8%
same,% of vessels with 25-50% Aβ,[1],4.06 ± 0.44%
same,% of vessels with 50-75% Aβ,[1],3.13 ± 0.35%
same,% of vessels with >10% Aβ,[1],16.5 ± 0.76%
same,% of vessels with >75% Aβ,[1],3.7 ± 0.55%
same,"CAA Frequency (number vessels with >10% Aβ normalized to sample area, *10^7)",[1],94 ± 6.5
same,"Number vessels with >10% Aβ, mean ± SEM",[1],319 ± 22.2
same,Total vessel-associated NT12 area (normalized to total CD31+ area),[1],0.65 ± 0.07
same,"CAA Frequency (number vessels with >10% Aβ normalized to sample area, *10^7)",[2],9.3 ± 1.0
same,"Number vessels with >10% Aβ, mean ± SEM",[2],29 ± 3.0
same,Total vessel-associated NT12 area (normalized to total CD31+ area),[2],0.79 ± 0.05
same,"% of large vessels with 0% Aβ, treatment effect vs vehicle",0.03 g/kg vs vehicle,−18%
same,"% of large vessels with 1-10% Aβ, treatment effect vs vehicle",0.03 g/kg vs vehicle,+19%
same,"% of large vessels with 10-25% Aβ, treatment effect vs vehicle",0.03 g/kg vs vehicle,+60%
same,"% of large vessels with 25-50% Aβ, treatment effect vs vehicle",0.03 g/kg vs vehicle,−9%
same,"% of large vessels with 50-75% Aβ, treatment effect vs vehicle",0.03 g/kg vs vehicle,−15%
same,"% of large vessels with >10% Aβ, treatment effect vs vehicle",0.03 g/kg vs vehicle,−1%
same,"% of large vessels with >75% Aβ, treatment effect vs vehicle",0.03 g/kg vs vehicle,+12%
same,"% of small + medium vessels with 0% Aβ, treatment effect vs vehicle",0.03 g/kg vs vehicle,−13%
same,"% of small + medium vessels with 1-10% Aβ, treatment effect vs vehicle",0.03 g/kg vs vehicle,+76%
same,"% of small + medium vessels with 10-25% Aβ, treatment effect vs vehicle",0.03 g/kg vs vehicle,+16%
same,"% of small + medium vessels with 25-50% Aβ, treatment effect vs vehicle",0.03 g/kg vs vehicle,−9%
same,"% of small + medium vessels with 50-75% Aβ, treatment effect vs vehicle",0.03 g/kg vs vehicle,−6%
same,"% of small + medium vessels with >10% Aβ, treatment effect vs vehicle",0.03 g/kg vs vehicle,+1%
same,"% of small + medium vessels with >75% Aβ, treatment effect vs vehicle",0.03 g/kg vs vehicle,0%
same,"Total small + medium vessel-associated NT12 area (normalized to total CD31+ small + medium vessel area), treatment effect vs vehicle",0.03 g/kg vs vehicle,+6% n.s.
same,"% of vessels with 0% Aβ, treatment effect vs vehicle",[3],−17%
same,"% of vessels with 1-10% Aβ, treatment effect vs vehicle",[3],+82%
same,"% of vessels with 10-25% Aβ, treatment effect vs vehicle",[3],+34%
same,"% of vessels with 25-50% Aβ, treatment effect vs vehicle",[3],−2%
same,"% of vessels with 50-75% Aβ, treatment effect vs vehicle",[3],0%
same,"% of vessels with >10% Aβ, treatment effect vs vehicle",[3],+12%
same,"% of vessels with >75% Aβ, treatment effect vs vehicle",[3],+12%
same,"CAA Frequency, treatment effect vs vehicle",[3],−4% n.s.
same,"Number vessels with >10% Aβ, treatment effect vs vehicle",[3],−10% n.s.
same,"Total vessel-associated NT12 area (normalized to total CD31+ area), treatment effect vs vehicle",[3],+14% n.s.
same,"CAA Frequency, treatment effect vs vehicle",[4],+20% n.s.
same,"Number vessels with >10% Aβ, treatment effect vs vehicle",[4],+4% n.s.
same,"Total vessel-associated NT12 area (normalized to total CD31+ area), treatment effect vs vehicle",[4],−1% n.s.
same,"CAA Frequency, treatment effect vs vehicle",[5],+2% n.s.
same,"Number vessels with >10% Aβ, treatment effect vs vehicle",[5],−12% n.s.
